Assay results as given in patent publication US8129371B2, “Thienopyrimidine and pyrazolopyrimidine compounds and their use as mTOR kinase and PI3 kinase inhibitors” (Wyeth LLC, priority 2007, dated 2012).

What was measured:
PI3K [1] = molecular target: T1, PI3K (Homo sapiens, UniProt P48736); assay: Fluorescence polarization assay for PI3K; type: biochemical; details: PI3 Kinase γ; read-out: PI3 Kinase γ IC50
T1 construct: PI3 Kinase γ IC50; other: PI3 Kinase γ; other: PI3 Kinase γ isoform, fluorescence polarization
T1 sequence (P48736 whole entry, canonical isoform): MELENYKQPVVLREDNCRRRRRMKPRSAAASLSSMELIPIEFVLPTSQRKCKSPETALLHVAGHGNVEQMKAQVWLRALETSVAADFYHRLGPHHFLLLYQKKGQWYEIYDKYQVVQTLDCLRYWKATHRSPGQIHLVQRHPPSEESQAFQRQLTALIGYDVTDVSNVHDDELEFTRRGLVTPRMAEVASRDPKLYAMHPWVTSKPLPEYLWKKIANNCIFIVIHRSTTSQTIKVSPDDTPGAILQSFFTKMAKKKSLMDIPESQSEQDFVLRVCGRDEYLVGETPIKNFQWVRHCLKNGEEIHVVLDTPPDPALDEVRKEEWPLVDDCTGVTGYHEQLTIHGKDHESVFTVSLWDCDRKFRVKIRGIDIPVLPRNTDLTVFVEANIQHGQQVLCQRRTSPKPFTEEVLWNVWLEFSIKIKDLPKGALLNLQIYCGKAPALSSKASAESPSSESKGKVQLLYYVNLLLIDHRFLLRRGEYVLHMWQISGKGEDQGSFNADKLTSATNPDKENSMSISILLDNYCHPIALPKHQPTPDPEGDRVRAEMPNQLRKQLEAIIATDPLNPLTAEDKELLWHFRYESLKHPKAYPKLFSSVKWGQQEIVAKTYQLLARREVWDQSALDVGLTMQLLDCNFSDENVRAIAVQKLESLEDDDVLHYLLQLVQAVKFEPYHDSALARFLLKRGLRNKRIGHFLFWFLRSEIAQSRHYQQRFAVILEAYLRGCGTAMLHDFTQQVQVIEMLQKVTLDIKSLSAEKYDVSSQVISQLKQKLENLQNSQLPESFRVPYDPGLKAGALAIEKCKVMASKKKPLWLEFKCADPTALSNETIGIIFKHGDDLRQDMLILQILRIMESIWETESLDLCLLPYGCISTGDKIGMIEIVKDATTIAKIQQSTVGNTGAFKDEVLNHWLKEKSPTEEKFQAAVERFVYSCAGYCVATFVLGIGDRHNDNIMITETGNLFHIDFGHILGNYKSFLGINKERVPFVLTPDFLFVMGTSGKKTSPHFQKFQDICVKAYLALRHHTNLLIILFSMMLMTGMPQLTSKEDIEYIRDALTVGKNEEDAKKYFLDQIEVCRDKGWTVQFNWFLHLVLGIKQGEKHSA
Summary of the method: (§1)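 PI3K was preincubated with compound (final DMSO 1%), and the reaction was started with PIP2/ATP substrate and run 30–60 min. It was stopped with a detector mix giving 10 nM red probe and 70 nM GST-GRP.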

PI3K [2] = molecular target: T2, PI3K (Homo sapiens, UniProt P42336); assay: Fluorescence polarization assay for PI3K; type: biochemical; details: PI3 Kinase α; read-out: PI3 Kinase α IC50
T2 construct: PI3 Kinase α IC50; other: PI3 Kinase α; other: PI3 Kinase α isoform, fluorescence polarization
T2 sequence (P42336 whole entry, canonical isoform): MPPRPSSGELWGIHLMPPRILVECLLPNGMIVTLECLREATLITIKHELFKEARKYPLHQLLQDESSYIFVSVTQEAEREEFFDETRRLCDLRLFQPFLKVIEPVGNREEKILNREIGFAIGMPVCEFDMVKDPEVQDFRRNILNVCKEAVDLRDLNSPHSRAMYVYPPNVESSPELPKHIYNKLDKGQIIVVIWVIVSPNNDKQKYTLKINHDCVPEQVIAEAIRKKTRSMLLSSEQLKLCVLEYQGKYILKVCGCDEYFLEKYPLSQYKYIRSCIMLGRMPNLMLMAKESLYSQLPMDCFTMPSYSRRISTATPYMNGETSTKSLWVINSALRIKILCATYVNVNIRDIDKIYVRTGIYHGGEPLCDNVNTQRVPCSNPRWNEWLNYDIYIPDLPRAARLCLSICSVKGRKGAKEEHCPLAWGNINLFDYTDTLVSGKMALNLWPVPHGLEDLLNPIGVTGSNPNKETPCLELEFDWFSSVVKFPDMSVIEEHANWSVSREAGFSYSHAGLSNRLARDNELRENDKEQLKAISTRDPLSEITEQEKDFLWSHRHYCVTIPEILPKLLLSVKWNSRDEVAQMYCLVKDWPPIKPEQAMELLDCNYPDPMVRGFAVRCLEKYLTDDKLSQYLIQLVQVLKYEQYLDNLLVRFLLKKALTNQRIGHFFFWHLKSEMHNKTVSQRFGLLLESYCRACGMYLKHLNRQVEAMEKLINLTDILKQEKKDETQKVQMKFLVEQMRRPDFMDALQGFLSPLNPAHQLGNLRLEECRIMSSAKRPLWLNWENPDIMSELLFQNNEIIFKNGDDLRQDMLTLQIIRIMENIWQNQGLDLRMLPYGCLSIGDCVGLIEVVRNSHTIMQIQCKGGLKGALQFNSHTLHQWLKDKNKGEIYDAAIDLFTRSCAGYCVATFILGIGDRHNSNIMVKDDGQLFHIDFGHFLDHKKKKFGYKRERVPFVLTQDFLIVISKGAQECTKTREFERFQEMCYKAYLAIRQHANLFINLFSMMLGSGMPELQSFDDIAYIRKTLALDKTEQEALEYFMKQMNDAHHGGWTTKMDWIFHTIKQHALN
Summary of the method: as §1

prostate line LNCap = assay: In vitro cell culture growth assay (MTS), LNCap; type: cell-based; details: Homo sapiens, LNCaP, 72 h, LNCap cells, three days after drug treatment
Description: Human tumor cell lines used include prostate lines LNCap and PC3MM2, breast lines MDA468, MCF7, renal line HTB44 (A498), colon line HCT116, and ovarian line OVCAR3. Cells were plated in 96-well culture plates. One day following plating, the inhibitors were added to cells. Three days after drug treatment, viable cell densities were determined by metabolic conversion (by viable cells) of the dye MTS, a well-established cell proliferation assay. The assays were performed using an assay kit purchased from Promega Corp. (Madison, Wis.) following the protocol supplied with the kit. The MTS assay results were read in a 96-well plate reader by measuring absorbance at 490 nm. The effect of each treatment was calculated as percent of control growth relative to the vehicle-treated cells grown in the same culture plate.

breast line MDA468 = assay: In vitro cell culture growth assay (MTS), MDA468; type: cell-based; details: Homo sapiens, 72 h, MDA468 cells, three days after drug treatment
Summary of the method: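 Plate cells; add inhibitors on day 1; after 3 days' treatment, add MTS; read A490; express as percent growth of vehicle-treated control.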

Human mTOR (FLAG-TOR) = molecular target: T3, Human mTOR (FLAG-TOR) (Homo sapiens, UniProt P42345); assay: Human mTOR kinase assay with purified enzyme, DELFIA format; type: biochemical
T3 construct: FLAG
Summary of the method: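 Purified FLAG-mTOR in HEPES pH 7.4 buffer with 10 mM MnCl2 was preincubated with inhibitor and reacted 2 h at room temperature with His6-S6K substrate, then stopped with EDTA/EGTA. Phospho-T389 S6K detected by DELFIA with Eu-labelled antibody (40 ng/mL) after plate capture; inhibition computed from signal.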

Row | IC50 (PI3K [1]) | IC50 (PI3K [2]) | IC50 (prostate line LNCap) | IC50 (Human mTOR (FLAG-TOR)) | SMILES | IC50 (breast line MDA468)
1 | 6570 nM | 2750 nM | < 27 nM | 0.22 nM | O=C(NCCF)Nc1ccc(-c2nc(N3CC4CCC(C3)O4)c3cnn(CC(F)(F)F)c3n2)cc1 [Example 6, 1-(2-fluoroethyl)-3-{4-[4-(8-oxa-3-azabicyclo[3.2.1]oct-3-yl)-1-(2,2,2-trifluoroethyl)-1H-pyrazolo[3,4-d]pyrimidin-6-yl]phenyl}urea] | < 27 nM
2 | > 10000 nM | 1800 nM | 26 nM | 0.21 nM | CNC(=O)Nc1ccc(-c2nc(N3CC4CCC(C3)O4)c3cnn(C4CCN(C(=O)OC)CC4)c3n2)cc1 [Example 7, methyl 4-[6-{4-[(methylcarbamoyl)amino]phenyl}-4-(8-oxa-3-azabicyclo[3.2.1]oct-3-yl)-1H-pyrazolo[3,4-d]pyrimidin-1-yl]piperidine-1-carboxylate] | 80 nM
3 | > 10000 nM | 1480 nM | < 27 nM | 0.28 nM | CNC(=O)Nc1ccc(-c2nc(N3CC4CCC(C3)O4)c3cnn(C4CCN(C(=O)OC(C)(C)C)CC4)c3n2)cc1 [Example 8, tert-butyl 4-[6-{4-[(methylcarbamoyl)amino]phenyl}-4-(8-oxa-3-azabicyclo[3.2.1]oct-3-yl)-1H-pyrazolo[3,4-d]pyrimidin-1-yl]piperidine-1-carboxylate] | 180 nM
4 | > 10000 nM | 5330 nM | 9 nM | 0.22 nM | CCNC(=O)Nc1ccc(-c2nc(N3CC4CCC(C3)O4)c3cnn(C4CCN(C(=O)OC)CC4)c3n2)cc1 [Example 9, methyl 4-[6-{4-[(ethylcarbamoyl)amino]phenyl}-4-(8-oxa-3-azabicyclo[3.2.1]oct-3-yl)-1H-pyrazolo[3,4-d]pyrimidin-1-yl]piperidine-1-carboxylate] | 180 nM
5 | 6590 nM | 4930 nM | 12 nM | 0.34 nM | COC(=O)N1CCC(n2ncc3c(N4CC5CCC(C4)O5)nc(-c4ccc(NC(=O)NCCF)cc4)nc32)CC1 [Example 10, methyl 4-[6-(4-{[(2-fluoroethyl)carbamoyl]amino}phenyl)-4-(8-oxa-3-azabicyclo[3.2.1]oct-3-yl)-1H-pyrazolo[3,4-d]pyrimidin-1-yl]piperidine-1-carboxylate] | 220 nM
6 | 6820 nM | 272 nM | 10 nM | 0.37 nM | COC(=O)N1CCC(n2ncc3c(N4CC5CCC(C4)O5)nc(-c4ccc(NC(=O)Nc5ccccc5)cc4)nc32)CC1 [Example 11, methyl 4-[4-(8-oxa-3-azabicyclo[3.2.1]oct-3-yl)-6-{4-[(phenylcarbamoyl)amino]phenyl}-1H-pyrazolo[3,4-d]pyrimidin-1-yl]piperidine-1-carboxylate] | 120 nM
7 | 6840 nM | 613 nM | 15 nM | 0.1 nM | COC(=O)N1CCC(n2ncc3c(N4CC5CCC(C4)O5)nc(-c4ccc(NC(=O)Nc5cccnc5)cc4)nc32)CC1 [Example 13, methyl 4-[4-(8-oxa-3-azabicyclo[3.2.1]oct-3-yl)-6-{4-[(pyridin-3-ylcarbamoyl)amino]phenyl}-1H-pyrazolo[3,4-d]pyrimidin-1-yl]piperidine-1-carboxylate] | 75 nM
8 | 2050 nM | 487 nM | 0.9 nM | 0.16 nM | COC(=O)N1CCC(n2ncc3c(N4CC5CCC(C4)O5)nc(-c4ccc(NC(=O)Nc5ccncc5)cc4)nc32)CC1 [Example 14, methyl 4-[4-(8-oxa-3-azabicyclo[3.2.1]oct-3-yl)-6-{4-[(pyridin-4-ylcarbamoyl)amino]phenyl}-1H-pyrazolo[3,4-d]pyrimidin-1-yl]piperidine-1-carboxylate] | 19 nM
9 | > 10000 nM | 2280 nM | 4 nM | 0.31 nM | CCNC(=O)Nc1ccc(-c2nc(N3CC4CCC(C3)O4)c3cnn(C4CCN(Cc5cccnc5)CC4)c3n2)cc1 [Example 15, 1-ethyl-3-(4-{4-(8-oxa-3-azabicyclo[3.2.1]oct-3-yl)-1-[1-(pyridin-3-ylmethyl)piperidin-4-yl]-1H-pyrazolo[3,4-d]pyrimidin-6-yl}phenyl)urea] | 85 nM
10 | > 10000 nM | 2630 nM | 6 nM | 0.5 nM | O=C(NCCF)Nc1ccc(-c2nc(N3CC4CCC(C3)O4)c3cnn(C4CCN(Cc5cccnc5)CC4)c3n2)cc1 [Example 16, 1-(2-fluoroethyl)-3-(4-{4-(8-oxa-3-azabicyclo[3.2.1]oct-3-yl)-1-[1-(pyridin-3-ylmethyl)piperidin-4-yl]-1H-pyrazolo[3,4-d]pyrimidin-6-yl}phenyl)urea] | 80 nM
11 | 1860 nM | 222 nM | 0.8 nM | 0.61 nM | O=C(Nc1ccccc1)Nc1ccc(-c2nc(N3CC4CCC(C3)O4)c3cnn(C4CCN(Cc5cccnc5)CC4)c3n2)cc1 [Example 17, 1-(4-{4-(8-oxa-3-azabicyclo[3.2.1]oct-3-yl)-1-[1-(pyridin-3-ylmethyl)piperidin-4-yl]-1H-pyrazolo[3,4-d]pyrimidin-6-yl}phenyl)-3-phenylurea] | 10 nM
12 | 3480 nM | 326 nM | < 0.8 nM | 0.25 nM | O=C(Nc1ccc(-c2nc(N3CC4CCC(C3)O4)c3cnn(C4CCN(Cc5cccnc5)CC4)c3n2)cc1)Nc1cccnc1 [Example 18, 1-(4-{4-(8-oxa-3-azabicyclo[3.2.1]oct-3-yl)-1-[1-(pyridin-3-ylmethyl)piperidin-4-yl]-1H-pyrazolo[3,4-d]pyrimidin-6-yl}phenyl)-3-pyridin-3-ylurea] | < 0.8 nM
13 | 391 nM | 223 nM | < 0.8 nM | 0.14 nM | O=C(Nc1ccncc1)Nc1ccc(-c2nc(N3CC4CCC(C3)O4)c3cnn(C4CCN(Cc5cccnc5)CC4)c3n2)cc1 [Example 19, 1-(4-{4-(8-oxa-3-azabicyclo[3.2.1]oct-3-yl)-1-[1-(pyridin-3-ylmethyl)piperidin-4-yl]-1H-pyrazolo[3,4-d]pyrimidin-6-yl}phenyl)-3-pyridin-4-ylurea] | < 0.8 nM
14 | > 10000 nM | 2350 nM | 27 nM | 0.47 nM | CCNC(=O)Nc1ccc(-c2nc(N3CC4CCC(C3)O4)c3cnn(C4CCN(C(=O)OC(C)(C)C)CC4)c3n2)cc1 [Example 20, tert-butyl4-[6-{4-[(ethylcarbamoyl)amino]phenyl}-4-(8-oxa-3-azabicyclo[3.2.1]oct-3-yl)-1H-pyrazolo[3,4-d]pyrimidin-1-yl]piperidine-1-carboxylate] | 98 nM
15 | 11000 nM | 3960 nM | 12 nM | 0.24 nM | CC(C)(C)OC(=O)N1CCC(n2ncc3c(N4CC5CCC(C4)O5)nc(-c4ccc(NC(=O)NCCF)cc4)nc32)CC1 [Example 21, tert-butyl 4-[6-(4-{[(2-fluoroethyl)carbamoyl]amino}phenyl)-4-(8-oxa-3-azabicyclo[3.2.1]oct-3-yl)-1H-pyrazolo[3,4-d]pyrimidin-1-yl]piperidine-1-carboxylate] | 120 nM
